Test results published in patent publication US20110195924A1, “Methods of Inhibiting the Interaction Between S100P and the Receptor for Advanced Glycation End-Products” (priority 2008, published 2011).

Tests used:
S100P and RAGE = target: T1, S100P and RAGE (Homo sapiens, UniProt P25815); experiment: Co-immunoprecipitation of S100P and RAGE from BxPC-3 cell lysates; assay type: binding; conditions: cromolyn 100 μM
T1 construct: endogenous in cells; host or cells: BxPC-3 cell lysate
T1 sequence (P25815 1-95): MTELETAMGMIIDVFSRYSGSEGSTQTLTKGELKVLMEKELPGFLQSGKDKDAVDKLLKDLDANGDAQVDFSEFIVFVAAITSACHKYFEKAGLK
Description: Receptor for advanced glycation end products (RAGE) was identified in the immunoprecipitates by immunoblotting with a goat polyclonal anti-RAGE antibody and anti-S100P as an internal control. In the lower panel, one representative blot and densitometric analysis (means and 95% confidence intervals [CIs]) of three independent experiments is shown. *P<0.001, versus IP α-S100P without cromolyn.
For co-immunoprecipitation experiments, BxPC-3 cell lysates were incubated in the absence or presence of cromolyn (100 μM) at 4° C. overnight. S100P was immunoprecipitated using a mouse monoclonal anti-S100P antibody (Transduction Laboratories, San Diego, Calif.) for 6 hours at 4° C. and IgG-immobilized beads (Pierce Biotechnology, Inc. Rockford, Ill.). Antibody-associated proteins were electrophoresed on 10% polyacrylamide gels and electrophoretically transferred to nitrocellulose membranes. Membranes were blocked in PBS/5% milk overnight at 4° C. RAGE was detected using a goat polyclonal anti-RAGE antibody (1:200, Santa Cruz, Santa Cruz, Calif.), and S100P was detected using a goat polyclonal anti-S100P antibody (1:50, R & D systems, Minneapolis, Minn.) by immunoblotting as described in Arumugam, et al., S100P stimulates cell proliferation and survival via receptor for activated glycation end products (RAGE); J. Biol. Chem. 2004 Feb. 13; 279(7):5059-65. Briefly, membranes were incubated in primary antibody for 1 hour at room temperature followed by incubation with horseradish peroxidase-labeled secondary antibody for 30 minutes at room temperature. After a thorough wash in TBS-T buffer (1M Tris-HCL pH 8.3, 3M NaCl, 0.1% Tween-20), antibody-protein complexes were detected by using a chemiluminescent substrate (GE Healthcare Bio-Sciences Corp., Piscataway, N.J.). The intensity of the band was estimated (as density units) using densitometry (GS-250 Molecular Imaging System, Bio-Rad Laboratories, Richmond, Calif.). The experiment was repeated three times. […]

PC3 prostate cells = experiment: PC3 prostate cell viability with taxol; assay type: cell-based; conditions: taxol 100 nM, cromolyn 10 μM, 48 hours
Description: PC3 prostate cells were plated and treated with taxol (100 nM) either in the presence or absence of cromolyn (10 μM) for 48 hours. Cell viability was analyzed after 48 hours. *, P<0.05.

With `O=C(O)c1cc(=O)c2c(OCC(O)COc3cccc4oc(C(=O)O)cc(=O)c34)cccc2o1` [cromolyn, disodium 1,3-bis[(2′-carboxylatochromon-5′-yl)oxy]-2-hydroxypropane] the “co-immunoprecipitation of S100P and RAGE, difference versus control” value (S100P and RAGE) was 25640 density units, the “total amount of S100P immunoprecipitated” value (S100P and RAGE) was “no effect” and the “co-immunoprecipitation of S100P and RAGE, mean” value (S100P and RAGE; control mean 34040) was 8410 density units. For the same molecule, the “cell killing effect of taxol on prostate cancer cells” value (PC3 prostate cells) was “increased the cell killing effect of taxol”.
